Values of other authors, collected in PMC11923636, “Synthesis, Pharmacological Evaluation, and Molecular Modeling of Phthalimide Derivatives as Monoamine Oxidase and Cholinesterase Dual Inhibitors” (ACS Omega, 2025).

Test system: MAO-B
Conditions: weak inhibition compared to the standard; ref number not given; cited from earlier work

## N-benzylphthalimide [V]
  IC50: 10.5 µM
